These results are taken from patent publication US20230148450A9, “BICYCLIC HETEROARYL COMPOUNDS AND USES THEREOF” (Revolution Medicines, Inc., priority 2019, published 2023).

Some results are limits rather than exact numbers.

The target of test [1] is T1, SOS1-mediated exchange of KRAS-4B:GDP to KRAS-4B:GTP (Homo sapiens, UniProt Q07889).
T1 construct: SOS1 (Cytoskeleton Inc., Cat. CS-GE02); purchased Cytoskeleton Inc. CS-GE02 (SOS1); CSRS03 (KRAS4-B)
T1 sequence (Q07889 564-1049 limits assumed): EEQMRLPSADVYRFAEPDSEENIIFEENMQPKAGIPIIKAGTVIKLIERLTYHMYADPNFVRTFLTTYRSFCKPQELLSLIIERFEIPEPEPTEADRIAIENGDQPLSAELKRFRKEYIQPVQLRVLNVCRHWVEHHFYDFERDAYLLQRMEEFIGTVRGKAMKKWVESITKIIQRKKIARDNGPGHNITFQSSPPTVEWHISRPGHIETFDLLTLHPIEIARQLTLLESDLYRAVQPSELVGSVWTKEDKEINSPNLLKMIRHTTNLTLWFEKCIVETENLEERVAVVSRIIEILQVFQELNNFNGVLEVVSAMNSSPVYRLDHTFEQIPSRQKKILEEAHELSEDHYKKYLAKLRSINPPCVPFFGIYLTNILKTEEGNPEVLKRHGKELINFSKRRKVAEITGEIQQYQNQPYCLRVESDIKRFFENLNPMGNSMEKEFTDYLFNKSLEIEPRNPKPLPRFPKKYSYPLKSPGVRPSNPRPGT
The test is described as follows: Bodipy-FL-GTP Association Assay. The test is classed as biochemical. Particulars: SOS1 GEF activity on KRAS-4B, 22° C. Here is the method:
A low IC50 value for a given compound is indicative of high potency of said compound in inhibiting the guanine nucleotide exchange factor (GEF) activity of SOS1 on KRAS-4B in this assay setting. Reagents: BODIPY FL GTP (ThermoFisher Scientific, Cat. G12411); KRAS4-B (Cytoskeleton Inc., Cat. CSRS03); SOS1 (Cytoskeleton Inc., Cat. CS-GE02); 2× Assay Buffer: 40 mM Tris-HCl, pH 7.5; 100 mM NaCl; 20 mM MgCl2; 0.1 mg/mL BSA; 0.02% NP-40 Assay Procedure: Test compounds were dissolved in DMSO to create 20 mM master stocks. The stocks were diluted in a 3× dilution series in 100% DMSO to achieve 100× compound stocks. A 1 μl spot of each test compound stock was delivered to two adjacent wells of a 96-well assay plate prior to running the assay. Reaction Mix preparation: The following were mixed in order at room temperature to obtain the “Reaction Mix” (5.75 mL 2× Exchange Buffer; 3.22 mL MilliQ ddH2O; 3 μL 5 mM BODIPY FL GTP; 230 μL 50 μM KRAS-4B; 9.203 mL Total volume. Reaction initiation: 80 μL of Reaction Mix was pipetted into each well of a half-area black 96-well plate (Corning, Cat. 3686) containing either a 1 μL spot of DMSO or a 1 μL spot test compound at the concentrations listed above. 20 μL of 1 μM SOS1 was then added to each well to initiate the reaction. For the no GEF control wells this was replaced with 1× exchange buffer. Kinetic measurement: The reaction was monitored in a SpectraMax M2 Microplate Reader (Molecular Devices) under the following protocol: 5 second rapid circular mixing before first read; 61 readings, 30 seconds apart; Assay temperature: 22° C.; Excitation wavelength: 485 nm; Emission wavelength: 513 nm. Data Analysis: The V max values for the SOS1-mediated BODIPY FL GTP exchange curves in the presence of test compounds were normalized to the most dilute test sample columns or DMSO only control wells to give the % Activity for each concentration of test compound. Plots of % Activity vs. the Log10 of the compound concentration were fit by non-linear regression to a 4-parameter logistic model.

Test [2] has as its target T2, SOS1 nucleotide exchange of KRAS (catalytic domain of SOS1, residues 564-1049; wild-type KRAS) (Homo sapiens, UniProt Q07889).
T2 construct: tagless catalytic domain of SOS1 (residues 564-1049)
T2 sequence (Q07889 564-1049): T1 sequence (Q07889 564-1049 limits assumed)
The test is described as follows: Mode of Action Assay: Inhibition of SOS1 Nucleotide Exchange Activity (TR-FRET). It counts as biochemical. Particulars: TR-FRET signal. In outline:
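SOS1 catalytic domain (564-1049, 100 nM as diluted) preincubated 20 min with compounds (100 μM–1.7 nM, 11-point 3-fold) in HEPES pH 7.5 buffer with MgCl2. Then mixed with avi-KRAS(1-169), Streptavidin-Tb and EDA-GTP-DY-647P1 for 30 min at room temperature. TR-FRET normalized to DMSO and positive control, triplicates; IC50 by four-parameter logistic fit.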

Test [3] addresses T3, SOS1 catalytic domain (residues 564-1049) (Homo sapiens, UniProt Q07889).
T3 construct: SOS1 catalytic domain (residues 564-1049) immobilized on a sensor chip
T3 sequence (Q07889 564-1049): T1 sequence (Q07889 564-1049 limits assumed)
Put plainly: Binding affinity to SOS1 using Surface Plasmon Resonance (SPR). Particulars: avi-tagged SOS1 catalytic domain immobilized on sensor chip; read-out: SOS1 SPR Equilibrium Kd. Summed up: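 Avi-tagged human SOS1 catalytic domain (564-1049) captured on streptavidin chip (~6000 RU); compounds flowed at 50 μL/min, 5 μM to 4.9 nM in ten 2-fold steps, in HEPES/NaCl/P20 buffer with 2% DMSO, double-referenced. Kd from end-of-association response plotted versus concentration.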

The subject of test [4] is cellular pERK in PC-9 cells (EGFR Ex19Del). The test is described as follows: Potency Assay: pERK. It counts as cell-based. Particulars: Homo sapiens; PC-9 cells (EGFR Ex19Del), 1 hour incubation, AlphaLISA p-ERK1/2; read-out: SOS1 pERK IC50. Summed up:
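Cells plated the day before and treated 1 h at 37 °C with 10-point 3-fold dilutions in duplicate, top 10 μM. pERK1/2 in lysates read by AlphaLISA SureFire Ultra. IC50 from 4-parameter sigmoidal fit of signal vs log concentration.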

As to `Cc1nc(N[C@H](C)c2cccc(C(F)(F)F)c2)c2sc(C3=CCNCC3)cc2n1` [Example 1, 2-methyl-6-(1,2,3,6-tetrahydropyridin-4-yl)-N-[(1R)-1-[3-(trifluoromethyl)phenyl]ethyl]thieno [3,2-d] pyrimidin-4-amine], the concentration for half-maximal inhibition (IC50) in test [1] was 1000 to 5000 nM. On the same count and under the same terms, with `C[C@@H](Nc1ncnc2sc(C3=CCNCC3)cc12)c1cc(N)cc(C(F)(F)F)c1` [Example 3, N-[(1R)-1-[3-amino-5-(trifluoromethyl)phenyl]ethyl]-6-(1,2,3,6-tetrahydropyridin-4-yl)thieno[2,3-d]pyrimidin-4-amine] the figure was 1000 to 5000 nM; with `COCC(=O)N1CC=C(c2cc3c(N[C@H](C)c4cc(N)cc(C(F)(F)F)c4)ncnc3s2)CC1` [Example 4, 1-[4-(4-{[(1R)-1-[3-amino-5-(trifluoromethyl)phenyl]ethyl]amino}thieno[2,3-d]pyrimidin-6-yl)-1,2,3,6-tetrahydropyridin-1-yl]-2-methoxyethan-1-one], 1000 to 5000 nM; with `Cc1nc(N[C@H](C)c2cccc(C(F)(F)F)c2)c2sc([C@]3(O)CC[C@@H](O)CC3)cc2n1` [Example 5, trans-1-(2-methyl-4-{[(1R)-1-[3-(trifluoromethyl)phenyl]ethyl]amino}thieno[3,2-d]pyrimidin-6-yl) cyclohexane-1,4-diol], > 5000 nM. In test [1], `Cc1nc(N[C@H](C)c2cccc(C(F)(F)F)c2)c2sc([C@]3(O)CC[C@H](O)CC3)cc2n1` [Example 6, cis-1-(2-methyl-4-{[(1R)-1-[3-(trifluoromethyl)phenyl]ethyl]amino}thieno[3,2-d]pyrimidin-6-yl)cyclohexane-1,4-diol] gave a 50% inhibitory concentration (IC50) of 1000 to 5000 nM.

`C[C@@H](Nc1ncnc2sc(C3(O)CCC(O)CC3)cc12)c1cc(N)cc(C(F)(F)F)c1` (stereo partly drawn) [Example 7, 1-(4-{[(1R)-1-[3-amino-5-(trifluoromethyl)phenyl]ethyl]amino}thieno[2,3-d]pyrimidin-6-yl)cyclohexane-1,4-diol]: the IC50 in test [1] is < 1000 nM. Same read-out and setting: with `C[C@@H](Nc1ncnc2cc(C3=CCNCC3)sc12)c1cc(N)cc(C(F)(F)F)c1` [Example 9, N-[(1R)-1-[3-amino-5-(trifluoromethyl)phenyl]ethyl]-6-(1,2,3,6-tetrahydropyridin-4-yl)thieno[3,2-d]pyrimidin-4-amine] the figure was < 1000 nM; with `C[C@@H](Nc1nccn2cc(C(=O)N3CCN(C)CC3)nc12)c1cc(N)cc(C(F)(F)F)c1` [Example 10, N-[(1R)-1-[3-amino-5-(trifluoromethyl)phenyl]ethyl]-2-(4-methylpiperazine-1-carbonyl)imidazo[1,2-a]pyrazin-8-amine], 1000 to 5000 nM; with `C[C@@H](Nc1ncnn2cc(C3CCNCC3)cc12)c1cc(N)cc(C(F)(F)F)c1` [Example 11, N-[(1R)-1-[3-amino-5-(trifluoromethyl)phenyl]ethyl]-6-(piperidin-4-yl)pyrrolo[2,1-f][1,2,4]triazin-4-amine], < 1000 nM. Same read-out and setting: with `C[C@@H](Nc1ncnn2cc(C3=CCNCC3)cc12)c1cc(N)cc(C(F)(F)F)c1` [Example 12, N-[(1R)-1-[3-amino-5-(trifluoromethyl)phenyl]ethyl]-6-(1,2,3,6-tetrahydropyridin-4-yl)pyrrolo[2,1-f][1,2,4]triazin-4-amine] the figure was < 1000 nM; with `CC(=O)N1CC=C(c2cc3c(N[C@H](C)c4cc(N)cc(C(F)(F)F)c4)ncnn3c2)CC1` [Example 13, 1-[4-[4-[[(1R)-1-[3-amino-5-(trifluoromethyl)phenyl]ethyl]amino]pyrrolo[2,1-f][1,2,4]triazin-6-yl]-3,6-dihydro-2H-pyridin-1-yl]ethanone], 1000 to 5000 nM; with `C[C@@H](Nc1ncnn2cc(C3=CCNCC3)cc12)c1cccc(C(F)(F)F)c1` [Example 14], 1000 to 5000 nM. Same read-out and setting: with `CC(=O)N1CC=C(c2cc3c(N[C@H](C)c4cccc(C(F)(F)F)c4)ncnn3c2)CC1` [Example 15] the figure was > 5000 nM; with `C[C@@H](Nc1ncnn2cc(C(=O)N3CCOCC3)cc12)c1cc(N)cc(C(F)(F)F)c1` [Example 16], > 5000 nM. On to `C[C@@H](Nc1nccn2cc(C(=O)NC[C@H]3CCOC3)nc12)c1cccc(C(F)(F)F)c1` [Example 17], for which the IC50 in test [1] is > 5000 nM. In the case of `C[C@@H](Nc1nccc2nc(C(=O)N3CCN(C4COC4)CC3)cn12)c1cccc(C(F)F)c1F` [Example 87], the half-maximal inhibitory concentration (IC50) is < 1000 nM in test [2] and > 1000 nM in test [4]. Moreover, in test [3], the equilibrium dissociation constant (Kd) was ≤ 400 nM. In the same order, the values of `C[C@@H](Nc1nccc2nc(C(=O)N3CC4(C3)CN(C3COC3)C4)cn12)c1cccc(C(F)F)c1F` [Example 88] are < 1000 nM, < 1000 nM and ≤ 400 nM.

For the compound `CC(=O)N1CC2(C1)CN(C(=O)c1cn3c(N[C@H](C)c4cccc(C(F)F)c4F)nccc3n1)C2` [Example 89], the IC50 in test [2] and in test [4] was < 1000 nM throughout. For the same compound, the dissociation constant Kd in test [3] is ≤ 400 nM. Take `C[C@@H](Nc1nccc2nc(C(=O)N3CC4(C3)CN(C3CC3)C4)cn12)c1cccc(C(F)F)c1F` [Example 90]: the IC50 in test [2] and in test [4] was < 1000 nM in each case. Also, in test [3], the Kd is ≤ 400 nM. `C[C@@H](Nc1nccc2nc(C(=O)N3CC4(CN(CC(F)(F)F)C4)C3)cn12)c1cccc(C(F)F)c1F` [Example 91]: the IC50 in test [2] and in test [4] was < 1000 nM throughout. In test [3], the equilibrium dissociation constant (Kd) is ≤ 400 nM. As for `C[C@@H](Nc1nc(Cl)nn2cc(C(=O)N3CC4(CN(C)C4)C3)cc12)c1cccc(C(F)(F)F)c1` [Example 97], the IC50 in test [2] and in test [4] was < 1000 nM each time. Further, in test [3], the dissociation constant Kd is ≤ 400 nM. As to `C[C@@H](Nc1nc(Cl)nn2cc(C(=O)N3CC4(CN(C)C4)C3)cc12)c1cccc(C(F)F)c1F` [Example 99], the IC50 in test [2] and in test [4] was < 1000 nM throughout. The equilibrium dissociation constant (Kd) in test [3] is ≤ 400 nM. On to `C[C@@H](Nc1nc(Cl)nn2cc(C(=O)N3CC4(COC4)C3)cc12)c1cccc(C(F)F)c1F` [Example 100], for which the IC50 in test [2] and in test [4] was < 1000 nM throughout. For the same compound, the Kd in test [3] was ≤ 400 nM. For the compound `C[C@@H](Nc1nc(Cl)nc2c1nc(C(=O)N1CCOCC1)n2C)c1cccc(C(F)(F)CO)c1` [Example 103, (R)-(2-chloro-6-((1-(3-(1,1-difluoro-2-hydroxyethyl)phenyl)ethyl)amino)-9-methyl-9H-purin-8-yl)(morpholino)methanone], the IC50 in test [2] and in test [4] was < 1000 nM each time. Besides, the dissociation constant (Kd) in test [3] was > 400 nM.
